In patent publication US9139577B2, “Sulfoximine substituted quinazolines for pharmaceutical compositions” (Boehringer Ingelheim International GmbH, priority 2013, dated 2015):

Experiments:
[1] = system: MNK2 (MNK2a or MNK2b) or MNK1; conditions: cell culture cells transfected with MNK2 (MNK2a or MNK2b) or MNK1; cited from earlier work
[2] = target: MNK2a (Homo sapiens (Human), UniProt Q9HBH9); assay: MNK2a in vitro kinase assay (Assay 2), ADP-Glo; assay type: biochemical; conditions: read-out: MNK2 IC50
MNK2a, sequence (Q9HBH9 whole entry): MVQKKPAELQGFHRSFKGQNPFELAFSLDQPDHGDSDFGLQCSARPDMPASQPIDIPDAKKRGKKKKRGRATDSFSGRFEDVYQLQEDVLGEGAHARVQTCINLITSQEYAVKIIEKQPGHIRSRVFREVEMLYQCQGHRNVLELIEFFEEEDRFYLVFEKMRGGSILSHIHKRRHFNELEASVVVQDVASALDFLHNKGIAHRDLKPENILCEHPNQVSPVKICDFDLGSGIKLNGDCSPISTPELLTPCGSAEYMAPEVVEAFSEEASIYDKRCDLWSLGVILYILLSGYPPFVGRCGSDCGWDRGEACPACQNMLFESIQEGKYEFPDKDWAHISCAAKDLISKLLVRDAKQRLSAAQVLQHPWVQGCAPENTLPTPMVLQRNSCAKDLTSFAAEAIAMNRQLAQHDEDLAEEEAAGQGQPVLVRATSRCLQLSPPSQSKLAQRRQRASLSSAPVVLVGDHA

[3] = target: MNK1 (Homo sapiens (Human), UniProt Q9BUB5); assay: MNK1 in vitro kinase assay (Assay 3), Z'-LYTE; assay type: biochemical; conditions: for inhibition at 1 µM: compound concentration of 1 μM, read-out: MNK1 % INH
MNK1, sequence (Q9BUB5 other isoform, or with tags, fused parts or gaps): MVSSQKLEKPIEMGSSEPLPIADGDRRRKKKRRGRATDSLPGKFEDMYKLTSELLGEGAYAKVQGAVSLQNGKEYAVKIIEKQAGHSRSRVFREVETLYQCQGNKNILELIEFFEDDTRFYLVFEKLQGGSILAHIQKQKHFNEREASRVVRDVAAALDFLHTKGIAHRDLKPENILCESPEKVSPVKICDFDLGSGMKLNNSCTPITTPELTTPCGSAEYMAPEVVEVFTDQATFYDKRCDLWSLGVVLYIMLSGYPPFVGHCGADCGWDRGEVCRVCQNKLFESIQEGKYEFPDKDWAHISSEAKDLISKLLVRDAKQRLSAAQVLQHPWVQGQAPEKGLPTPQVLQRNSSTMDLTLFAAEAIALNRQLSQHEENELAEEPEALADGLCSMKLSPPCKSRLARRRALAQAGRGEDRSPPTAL
How it was run: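 Pre-activated GST-MNK1a phosphorylated a FRET peptide for 60 min at room temperature in HEPES pH 7.5 buffer with Mg2+/Mn2+, EGTA and DTT, with 1% DMSO final. Protease development followed for 60 min.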

SMILES | reduction of phosphorylated eIF4E [1] | IC50 [2] | inhibition at 1 µM [3] | IC50 [3]
Nc1ncnc2n[nH]c(Nc3ccc(F)cc3)c12 [CGP57380] | strong reduction of phosphorylated eIF4E |  |  | 
O=S1(=Nc2cc(C(F)(F)F)c3c(Nc4ccc(F)cc4OC(CF)CF)ncnc3c2)CCNCC1 [Example 1.009] |  | 26 nM | 64% | 
Cc1cc(N=S(C)(C)=O)cc2ncnc(Nc3ccc(F)cc3OC(C)c3ccccn3)c12 (stereo not shown) [Example 3.021] |  | 2 nM | 86% | 
Cc1cc(N=S(C)(C)=O)cc2ncnc(Nc3ccc(F)cc3OCC3CCNC(=O)C3)c12 (stereo not shown) [Example 3.033] |  | 2 nM | 56% | 
Cc1cc(N=S(C)(C)=O)cc2ncnc(Nc3ccc(F)cc3O[C@H](C)C(=O)NCC3CCCO3)c12 (stereo partly shown) [Example 4.011] |  | 24 nM | 86% | 
Cc1cc(N=S(C)(C)=O)cc2ncnc(Nc3ccc(F)cc3OCC3(C)COC3)c12 [Example 3.029] |  | 17 nM | 72% | 
Cc1cc(N=S(C)(C)=O)cc2ncnc(Nc3ccc(F)cc3O[C@H](C)C(=O)N[C@@H]3CCC[C@@H]3O)c12 [Example 4.038] |  | 27 nM | 78% | 
COCCN(C)C(=O)[C@@H](C)Oc1cc(F)ccc1Nc1ncnc2cc(N=S(C)(C)=O)cc(C)c12 [Example 4.055] |  | 14 nM | 62% | 
COC1CCN(C(=O)[C@@H](C)Oc2cc(F)ccc2Nc2ncnc3cc(N=S4(=O)CCCC4)cc(C)c23)CC1 [Example 4.059] |  | 4 nM | 90% | 
CC(=O)NC[C@@H](C)Oc1cc(F)ccc1Nc1ncnc2cc(N=S(C)(C)=O)cc(C)c12 [Example 5.009] |  | 35 nM | 74% | 
C[C@@H](Oc1cc(F)ccc1Nc1ncnc2cc(N=S(C)(C)=O)cc(F)c12)C(=O)NCC(F)(F)F [Example 3.049] |  | 2 nM |  | 68 nM
Cc1cc(N=S(C)(C)=O)cc2ncnc(Nc3ccc(F)cc3O[C@H](C)C(=O)N(C)C)c12 [Example 4.002] |  | 5 nM | 54% | 
Cc1cc(N=S(C)(C)=O)cc2ncnc(Nc3ccc(F)cc3O[C@H](C)C(=O)N3CCC(O)C3)c12 (stereo partly shown) [Example 4.005] |  | 28 nM | 74% | 
Cc1cc(N=S2(=O)CCCC2)cc2ncnc(Nc3ccc(F)cc3O[C@H](C)C(=O)N3CCC(O)C3)c12 (stereo partly shown) [Example 4.010] |  | 4 nM | 89% | 
C[C@@H](Oc1cc(F)ccc1Nc1ncnc2cc(N=S3(=O)CCC3)cc(Cl)c12)C(=O)NCC(F)(F)F [Example 4.138] |  | 1 nM | 64% | 27 nM
Cc1cc([C@@H](C)Oc2cc(F)ccc2Nc2ncnc3cc(N=S(C)(C)=O)cc(Cl)c23)on1 [Example 1.019] |  | 1 nM |  | 54 nM
CCNC(=O)NC[C@@H](C)Oc1cc(F)ccc1Nc1ncnc2cc(N=S(C)(C)=O)cc(C)c12 [Example 5.006] |  | 29 nM | 78% | 
